# US11040052B2, “Methods and pharmaceutical compositions for modulating autophagy in a subject in need thereof” (INSERM (INSTITUT NATIONAL DE LA SANTE ET DE LA RECHERCHE …, priority 2013, dated 2021)
# How the values were obtained:
# [1] = test system: MCA205 tumor; assay: Growth of transplantable tumors with chemotherapy; assay type: in vivo, mice; settings: for tumor growth, combined with MTX: immunocompetent wild type mice, agent given before and with mitoxanthrone
# Procedure: C57BL/6 mice (Charles River Laboratory, Lentilly, France) were bred and maintained according to both the FELASA and the Animal Experimental Ethics Committee Guidelines (Val de Marne, France). Mice were housed in a temperature-controlled environment with 12 h light/dark cycles and received food and water ad libitum. For HC-related experiments, mice were injected intraperitoneally with a single 100 mg/kg dose and 6 h later were sacrificed and tissues were immediately frozen in liquid nitrogen. For DCA- and DMKG-related experiments, mice were subjected to 24 h starvation and injected intraperitoneally each 8 h with a 100 mg/kg of either DCA or DMKG solution prepared in PBS. After 24 h of starvation, mice were sacrificed and tissues were immediately frozen in liquid nitrogen after extraction and homogenized two cycles for 20 s at 5,500 rpm using Precellys 24 tissue homogenator (Bertin Technologies, Montigny-le-Bretonneux, France) in a 20 mM Tris buffer (pH 7.4) containing 150 mM NaCl, 1% Triton X-100, 10 mM EDTA and Complete® protease inhibitor cocktail (Roche Applied Science). Tissue extracts were then centrifuged at 12,000 g at 4° C. and supernatants were collected. Protein concentration in the supernatants was evaluated by the bicinchoninic acid technique (BCA protein assay kit, Pierce Biotechnology, Rockford, Ill.). For hydroxycitrate-related weight-loss experiments, autophagy-deficient Atg4b^−/− mice were used. Atg4b^−/− mice have been previously described (Mariño et al., 2010). For HC-, spermidine-, and resveratrol-related experiments (tumour growth) mice were intraperitoneally injected with respectively 100 mg/kg, 50 mg/kg and 100 mg/kg doses at day 8 and day 9. At day 9, mice were intraperitoneally injected with 2 mg/kg single dose of Mitoxanthrone. For starvation related experiment (tumour growth) mice were treated as previously described (Fabrizio et. al., 2010).
# Six weeks old female C57BL/6, Balb/c and nude athymic mice (Harlan Laboratory, Gannat, France) were bred and maintained according to both the FELASA and the Animal Experimental Inserm Ethics Committee Guidelines (project: 2012-69). Mice were housed in a temperature-controlled environment with 12 h light/dark cycles and received food and water ad libitum. For tumor growth experiments, procedures adopted are described as follows: 3×10^5 tumor cells were subcutaneously inoculated; when tumors became palpable (day −1 before chemotherapy), mice were first intraperitoneally injected with 100 mg/kg Potassium Hydroxycitrate, 10 mg/kg Acetylsalicylic Acid, 30 mg/kg SB204990, 30 mg/kg c646, 5 mg/kg Rapamycin, 25 mg/kg Resveratrol, 50 mg/kg Spermidine. At day 0, mice were intraperitoneally injected with the abovementioned compounds and with 5.17 mg/Kg Mitoxanthrone or 5 mg/kg Oxaliplatin. Tumor size was measured every two days. For starvation experiments, mice underwent 48 hour fasting followed by intreperitoneal injection of chemotherapeutics. For autophagy induction study, 6 hours after CRMs administration, mice were sacrificed and tissues were snap-frozen in liquid nitrogen after extraction and homogenized two cycles for 20 s at 5,500 rpm using Precellys 24 tissue homogenator (Bertin Technologies, Montigny-le-Bretonneux, France) in a 20 mM Tris buffer (pH 7.4) containing 150 mM NaCl, 1% Triton X-100, 10 mM EDTA and Complete® protease inhibitor cocktail (Roche Applied Science, Penzberg, Germany). Tissue extracts were then centrifuged at 12,000 g at 4° C. and supernatants were collected. Protein concentration in the supernatants was evaluated by the bicinchoninic acid technique (BCA protein assay kit, Pierce Biotechnology, Rockford, US.
# [2] = test system: U2OS cells stably expressing GFP-LC3; assay: Autophagy in cultured cells: GFP-LC3 puncta formation and LC3 lipidation with or without bafilomycin A1; assay type: cell-based, human; settings: for autophagic flux (GFP-LC3 puncta formation, LC3 lipidation): cells kept in rich medium, presence and absence of BafA1; for statin-induced autophagy upon supplementation: 12 hours, Simvastatin and Mevastatin
# Procedure: U2OS, HeLa or H4 cells stably expressing GFP-LC3 were seeded in 96-well imaging plates (BD Falcon, Sparks, USA) 24 h before stimulation. Cells were treated with the indicated agents for 4 h. […] Images were analyzed for the presence of GFP-LC3 puncta in the cytoplasm by means of the BD Attovision software (BD Imaging Systems). Cell surfaces were segmented and divided into cytoplasmic and nuclear regions according to manufacturer standard proceedings. RB 2×2 and Marr-Hildreth algorithms were used to recognize cytoplasmic GFP-LC3 positive dots. Statistical analyses were implemented on the R software (http://www.r-project.org/). For quantitative analyses of protein acetylation, cell surfaces were segmented into cytoplasm and nuclei regions, and staining intensity of each individual cell was measured for statistical analysis.
# Membranes were then sliced in different parts according to the molecular weight of the protein of interest to allow simultaneous detection of different antigens within the same experiment. Unspecific binding sites were saturated by incubating membranes for 1 h in 0.05% Tween 20 (v:v in TBS) supplemented with 5% non-fat powdered milk (w:v in TBS), followed by the overnight incubation with primary antibodies specific for acetylated-lysine, LC3, phospho-AMPK (Thr172), AMPK, phospho-ribosomal protein S6 kinase (Thr421/Ser424), ribosomal protein S6 kinase, or STQM/p62 (Santa Cruz Biotechnology). Development was performed with appropriate horseradish peroxidase (HRP)-labeled secondary antibodies (Southern Biotech, Birmingham, USA) plus the SuperSignal West Pico chemoluminescent substrate (Thermo Scientific-Pierce). An anti-glyceraldehyde-3-phosphate dehydrogenase antibody (Chemicon International, Temecula, USA) was used to control equal loading of lanes.
# For immunoblotting, protein extracts obtained by cellular lysis via RIPA buffer were run on 4-12% Bis-Tris acrylamide (Invitrogen) and electrotransferred to […] PVDF membranes (Biorad, USA). Unspecific binding sites were saturated by incubating membranes for 1 h in 0.05% Tween 20 (v:v in TBS) supplemented with 5% non-fat powdered milk (w:v in TBS), followed by an overnight incubation with primary antibodies specific for, LC3, phospho-AMPK (Thr172), AMPK, phosphor-ACC (Ser79), ACC, phospho-ribosomal protein S6 kinase (Thr421/Ser424), ribosomal protein S6 kinase, or SQSTM/p62 (Abnova). Membranes were opportunely cut in order to allow simultaneous detection of different molecular weight proteins. Development was performed with horseradish peroxidase (HRP)-labeled secondary antibodies (Southern Biotech, Birmingham, USA) plus the SuperSignal West Pico chemo luminescent substrate (Thermo Scientific-Pierce). An anti-glyceraldehyde-3-phosphate dehydrogenase antibody (Abcam) and anti-Actin antibody (Abcam) were used to ensure equal loading of lanes. Quantification was performed by densitometry by means of Image J software.
# U2OS and H4 cells stably expressing GFP-LC3 were seeded in 96-well or 384-well imaging plates (BD Falcon, Sparks, USA). 24 h before stimulation, ells were treated with the indicated agents for 6 hours in absence of lysososomal ATPase inhibitors and for 3 hours in presence of Bafilomycin A1. […] Images were analyzed for the detection of GFP-LC3 puncta in the cytoplasm by means of the BD Attovision software (BD Imaging Systems. Cellular regions of interest, cytoplasm and nucleus, were defined and segmented according to standard proceedings. RB 2×2 and Marr-Hildreth algorithms were employed to allow the detection of GFP LC3 puncta. Statistical analyses were conducted using the R and Prism softwares (http://www.r-project.org/). For quantitative analyses of protein acetylation, cell surfaces were segmented intocytoplasmic and nucleic regions, and staining intensity of each individual cell was measured for statistical analysis.
# [3] = test system: AcCoA levels; assay: Targeted analysis of AcCoA levels in cultured cells (HPLC-MS); assay type: cell-based, human; settings: cells kept in rich medium
# Procedure: Cells were trypsinized, pelleted at 1000 rpm for 4 min, washed with PBS and pelleted again at 1000 rpm for 4 min. Cells were then resuspended in 5 ml of ice-cold hyposmotic buffer and keep on ice for 5 min. Cells were broken to release nuclei using a pre-chilled Dounce homogenizer (20 strokes with a tight pestle) and then were then centrifuged at 228 g.
# For in vitro experiments, cell pellets were resuspended in 300 μL of water with HEPES and EDTA (pH 7.4) at 1 mM containing internal standard acetylcoenzyme A (2-C13) at 1 mg/L, vortexed and heated at 100° C. for 1 min. Samples were incubated in liquid nitrogen for 1 min and thawed at room temperature two times. They were let for 1 h at −20° C. and centrifuged at 4° C. during 15 min at 13,000 g. Supernatants were transferred in HPLC vials and injected in HPLC/MS or kept at −80° C. until injection. For in vivo experiments, frozen tissues were placed in ice-cold homogenization tubes containing ceramic beads. Five μL of ice-cold methanol/water (80/20; v/v) were added for 1 mg of tissue. Tissues were homogenized two times for 20 s at 5,500 rpm using Precellys 24 tissue homogenator (Bertin Technologies, Montigny-le-Bretonneux, France). Samples were placed 10 min on ice. Next they were centrifuged at 4° C. during 15 min at 13,000 g. Supernatants were transferred in HPLC vials and injected in HPLC-MS system or kept at −80° C. until injection.
# Targeted analyses were performed on Rapid Resolution Liquid Chromatography (RRLC) 1200SL system (Agilent Technologies, Waldbronn, Germany) coupled to a Triple Quadruple QQQ 6410 mass spectrometer (Agilent Technologies). RRLC analysis was done on 150×2.1 mm, 3.5 μm Eclipse Plus SB-Aq column with a pre-column 30 mm×2.1 mm 3.5 μm Eclipse plus (Agilent Technologies) with water containing 10 mmol/L of ammonium acetate and 0.01% of acetic acid in channel A and acetonitrile in channel B in gradient mode at a flow rate of 0.3 mL·min^−1: t=0 min 2% B; t=9 min 95% B; t=11 min 95% B; re-equilibration time of 3 min. Mass spectrometer analysis was done in positive electrospray ionization mode at +4 kV on the QQQ system operating in MRM mode. MRM transitions were optimized with standard of AcCoA and AcCoA A 2-C^13 with direct infusion. Two transitions were recorded for each compound; • AcCoA 810>303 CE (collision energy) 28V; fragmentor 180V • 810>428 CE 20V • AcCoA 2-C13 812>305 CE 28V; fragmentor 180V • 812>428 CE 24V […]
smiles,measurement,setting,value
"O=C(O)C[C@]1(O)C[C@H](CCCCCCc2ccc(Cl)cc2Cl)OC1=O (relative stereo) [SB-204990, (3R,5S)-rel-5-[6-(2,4-Dichlorophenyl)hexyl]tetrahydro-3-hydroxy-2-oxo-3-furanacetic acid]","tumor growth, combined with MTX",[1],HC could be replaced
same,"tumor growth, combined with MTX",[1]; listed as SB204990,can enhance chemotherapy efficacy
same,"tumor growth, combined with MTX, immunodeficient mice",[1]; nu/nu (nude athymic) mice,failed
same,"autophagic flux (GFP-LC3 puncta formation, LC3 lipidation)",[2],stimulated autophagic flux in cultured cancer cells
same,"autophagic flux (GFP-LC3 puncta formation, LC3 lipidation)",[2]; listed as SB204990,induce autophagic flux
CC1COC(=O)C1 (centres unmarked) [3-methylbutyrolactone],"autophagic flux (GFP-LC3 puncta formation, LC3 lipidation)",[2],marked increase in GFP-LC3 puncta
"COc1ccc(-c2ccccc2)cc1NS(=O)(=O)c1cc(Cl)cc(Cl)c1O [BMS-303141, 3 5-Dichloro-2-hydroxy-N-(4-methoxy[1,1′-biphenyl]-3-yl)-benzenesulfonamide]","autophagic flux (GFP-LC3 puncta formation, LC3 lipidation)",[2],stimulated autophagic flux in cultured cancer cells
same,"autophagic flux (GFP-LC3 puncta formation, LC3 lipidation)",[2]; listed as BMS303141,induce autophagic flux
"C1CCC(C(CC2CCCCN2)C2CCCCC2)CC1 (centres unmarked) [PHX, perhexiline]",AcCoA levels,[3],reduced AcCoA cellular levels
same,"autophagic flux (GFP-LC3 puncta formation, LC3 lipidation)",[2],induced signs of autophagy
"CCCCCCCCCCCCCCCc1cccc(O)c1C(=O)O [anacardic acid, 6-pentadecylsalicylic acid]","autophagic flux (GFP-LC3 puncta formation, LC3 lipidation)",[2],marked increase in GFP-LC3 puncta
COc1cc(/C=C/C(=O)CC(=O)/C=C/c2ccc(O)c(OC)c2)ccc1O [curcumin],"autophagic flux (GFP-LC3 puncta formation, LC3 lipidation)",[2],marked increase in GFP-LC3 puncta
CC(O)(CCO)CC(=O)O (centres unmarked) [mevalonate],statin-induced autophagy upon supplementation,[2],only suppresses statin-induced autophagy
same,statin-induced autophagy upon supplementation,[2]; listed as Mevalonate,reverts statins-induced
